# Like-named read-outs stand apart in the source and are kept apart here.
# Tests used:
# [1] = Nitric oxide (NO) free radical scavenging assay (Griess reagent); settings: mean ± SD; 1-50 μM
# Method: Different concentrations (1, 5, 10, 25 and 50 μM) of the test compounds and quercetin (reference standard) were prepared in DMSO. A mixture of the compound (5 μL), 10 mM sodium nitroprusside (20 μL) and the phosphate buffer (5 μL) were incubated at 25 °C in a 96-well plate. The plate was incubated for 2.5 h at 25 °C followed by the addition of the Griess reagent (1.00 g of sulphanilic acid + 0.10 g naphthylethylene diamine dihydrochloride, 20 μL). The mixtures were allowed to stand for 30 min. […] The IC50 and SD values were calculated using the Graph Pad Prism software.
# A549 cells = test: Cytotoxicity, CellTiter-Blue cell viability assay; type: cell-based, human; settings: 24 h treatment, 1-100 μM
# Method: (§1) The cells were maintained in Dulbecco’s Modified Eagle’s Medium (DMEM, Gibco, Carlsbad, CA, USA) supplemented with 10% fetal bovine serum (FBS) and 1% penicillin/streptomycin in culture flasks and incubated at 37 °C in 5% CO2. When the cells reached 85% confluency, they were detached using 2% trypsin. The cell count was performed using a hand-held automated cell counter (Scapter 3.0™, Merck, Burlington, MA, USA) and then seeded at 1 × 10^5 cells/well. The well-plates were incubated overnight to allow cell attachment. After 24 h, treatments were administered with different concentrations (1, 5, 10, 25, 50 and 100 μM) of the test compounds and the positive controls (quercetin and nintedanib). The mixtures were incubated for another 24 h and then 20 μL of the CellTiter-Blue (Cytek Biosciences, San Diago, CA, USA) solution (5 mg/mL) was added to all the wells. Fluorescence was measured at 560 nm excitation/590 nm emission using an Elisa microplate reader (ThermoFisher Scientific, Vario SkanFlash, Vantaa, Finland). The cell viability of the triplicate results was calculated using the GraphPad Prism software (Version 8, GraphPad Software Inc., San Diego, CA, USA) to fit the nonlinear regression dose–response curves to obtain the IC50 and standard deviation values.
# MCF-7 cells = test: Cytotoxicity, CellTiter-Blue cell viability assay; type: cell-based, human; settings: 24 h treatment, 1-100 μM
# Method: as §1
# Vero cells = test: Cytotoxicity, CellTiter-Blue cell viability assay; type: cell-based, African green monkey (Cercopithecus aethiops); settings: 24 h treatment, 1-100 μM
# Method: as §1
# [2] = target: T1, α-glucosidase type 1 from Saccharomyces cerevisiae (Saccharomyces cerevisiae, UniProt P53341); test: biochemical; type: biochemical; settings: for selectivity index (SI = IC50(α-glucosidase)/IC50(α-amylase)): ratio of α-glucosidase to α-amylase IC50
# T1 construct: purchased Merck Life Science (Pty) Ltd. (Sigma-Aldrich) G5003
# Method: The assays and analyses were performed in triplicates following a method described in a previous study. […] A solution of α-glucosidase type 1 from Saccharomyces cerevisiae (0.48 u/mL, 17 μL), 100 mM phosphate buffer (pH 6.8; 50 μL) and the test sample in DMSO (17 μL) were incubated at 37 °C for 10 min. This pre-incubation was followed by addition of 2 mM p-nitrophenyl-α-D-glucopyranoside (PNP-G, 17 μL) to each of the wells containing reaction mixtures to initiate the reaction. The plate was then incubated for 30 min. at 37 °C. The five absorbance readings were recorded at a wavelength of 405 nm for each triplicate run using a Varioskan flash microplate spectrophotometer (Thermo Scientific, Waltham, MA, USA). The average values obtained from the readings were used to determine the IC50 and standard deviation values. The values were calculated by the nonlinear regression analysis using the Graph Pad Prism version 8.0.1 software (San Diego, CA, USA) and expressed as the mean SD of three distinct experiments.
# α-amylase = target: T2, α-amylase (Homo sapiens, UniProt P04746); test: In vitro α-amylase inhibitory assay (α-Amylase Inhibitor Screening Kit); type: biochemical; settings: mean ± SD, triplicate; 1-50 μM
# T2 construct: purchased Abcam ab283391
# T2 sequence (P04746 16-511): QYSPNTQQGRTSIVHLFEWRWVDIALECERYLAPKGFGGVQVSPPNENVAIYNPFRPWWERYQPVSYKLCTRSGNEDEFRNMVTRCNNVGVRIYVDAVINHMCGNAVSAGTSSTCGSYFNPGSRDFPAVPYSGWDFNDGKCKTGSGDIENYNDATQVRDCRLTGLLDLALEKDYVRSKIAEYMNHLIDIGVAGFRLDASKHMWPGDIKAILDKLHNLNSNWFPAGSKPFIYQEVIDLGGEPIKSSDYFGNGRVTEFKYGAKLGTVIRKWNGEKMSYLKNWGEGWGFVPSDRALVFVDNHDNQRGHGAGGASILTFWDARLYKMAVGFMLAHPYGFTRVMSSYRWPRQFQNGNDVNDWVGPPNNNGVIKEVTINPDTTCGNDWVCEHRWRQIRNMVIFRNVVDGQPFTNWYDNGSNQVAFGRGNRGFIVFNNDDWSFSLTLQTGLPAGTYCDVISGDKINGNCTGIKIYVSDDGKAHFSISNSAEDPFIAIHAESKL
# Method: The mixtures were incubated at 37 °C for 10 min. and the substrate prepared in the same fashion as the enzyme was added to the mixtures to initiate the reaction. The plate was then incubated at RT for 25 min. in the dark. Five different absorbance readings were recorded for each triplicate run at a wavelength of 405 nm using a Varioskan flash microplate spectrophotometer (Thermo Scientific, Waltham, MA, USA). The IC50 and SD values were calculated using the Graph Pad Prism software.
# [3] = Metal ion chelation assay (UV-Vis spectrophotometry); type: physicochemical; settings: 60 μM in methanol with CuCl2, RT
# Method: A solution of the test compound in methanol alone (60 μM, final concentration) or in the presence of CuCl2 or ZnCl2 was stirred at RT for 30 min. The absorption spectra were recorded at RT at wavelengths ranging from 200 to 600 nm using a Shimadzu UV/Vis spectrometer, model: UV-1800 240V (Shimadzu Europa GmbH, Albert-Han Strasse 6-10, 47269 Duisburg, Germany).
# [4] = Chlorocebus sabaeus, Vero, 24 h
# [5] = mean ± SD, triplicate, 1-50 μM, read-out: IC50 α-Glucosidase
# T1 sequence (P53341 whole entry): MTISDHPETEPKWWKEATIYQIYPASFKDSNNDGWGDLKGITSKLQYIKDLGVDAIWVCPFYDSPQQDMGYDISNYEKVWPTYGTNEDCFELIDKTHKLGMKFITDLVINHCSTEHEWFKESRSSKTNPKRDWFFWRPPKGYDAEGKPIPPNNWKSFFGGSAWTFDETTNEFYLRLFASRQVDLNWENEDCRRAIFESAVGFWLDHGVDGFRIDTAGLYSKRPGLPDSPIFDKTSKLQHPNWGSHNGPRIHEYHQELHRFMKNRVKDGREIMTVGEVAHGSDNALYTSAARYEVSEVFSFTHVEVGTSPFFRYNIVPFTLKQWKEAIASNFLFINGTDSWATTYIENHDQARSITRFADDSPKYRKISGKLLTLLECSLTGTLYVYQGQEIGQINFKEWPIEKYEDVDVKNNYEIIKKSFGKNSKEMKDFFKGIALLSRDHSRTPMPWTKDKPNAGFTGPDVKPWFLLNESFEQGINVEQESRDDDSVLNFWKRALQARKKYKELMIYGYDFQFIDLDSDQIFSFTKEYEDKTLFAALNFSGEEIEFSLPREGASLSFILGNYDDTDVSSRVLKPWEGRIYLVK
SMILES,IC50 [1],"IC50 (A549 cells; Homo sapiens, A549, 24 h)","IC50 (MCF-7 cells; Homo sapiens, MCF7, 24 h)",IC50 (Vero cells; [4]),"IC50 [2, 5]",IC50 (α-amylase),melting point,IC50 [2],other results
"O=c1c(O)c(-c2ccc(O)c(O)c2)oc2cc(O)cc(O)c12 [Quercetin, reference compound]",4.8 ± 0.01 µM,,,,,,,,"IC50 (A549 cells; Homo sapiens, A549): 35.4 ± 1.78 µM; IC50 (MCF-7 cells; Homo sapiens, MCF7): 35.4 ± 1.78 µM; IC50 (Vero cells; Chlorocebus sabaeus, Vero): 45.6 ± 1.8 µM"
"COC(=O)c1ccc2c(c1)NC(=O)/C2=C(\Nc1ccc(N(C)C(=O)CN2CCN(C)CC2)cc1)c1ccccc1 [Nintedanib, reference compound]",,0.74 ± 0.15 µM,0.53 ± 0.11 µM,0.89 ± 0.18 µM,,,,,
"COc1c(Br)c(OC)c2c(=O)cc(-c3ccc(C)cc3)oc2c1Br [3e, 6,8-Dibromo-5,7-dimethoxy-2-(p-tolyl)-4H-chromen-4-one]",13.3 ± 0.08 µM,6.42 ± 0.79 µM,6.96 ± 0.66 µM,9.45 ± 0.79 µM,10.9 ± 0.007 µM,25.4 ± 0.04 µM,205 to 206 °C,,
"COc1c(Br)c(O)c(C(=O)/C=C/c2ccccc2)c(OC)c1Br [2a, (E)-1-(3,5-Dibromo-2-hydroxy-4,6-dimethoxyphenyl)-3-phenylprop-2-en-1-one]",11 ± 0.01 µM,7.4 ± 0.67 µM,4.12 ± 0.55 µM,6.04 ± 0.54 µM,,7.3 ± 0.11 µM,106 to 108 °C,14.5 ± 0.01 µM,selectivity index (SI = IC50(α-glucosidase)/IC50(α-amylase)) [2]: 1.99
"COc1ccc(/C=C/C(=O)c2c(O)c(Br)c(OC)c(Br)c2OC)cc1 [2d, (E)-1-(3,5-Dibromo-2-hydroxy-4,6-dimethoxyphenyl)-3-(4-methoxyphenyl)prop-2-en-1-one]",9.5 ± 0.004 µM,,,,,,155 to 158 °C,16.3 ± 0.02 µM,
"COc1c(Br)c(O)c(C(=O)/C=C/c2ccc(Cl)cc2)c(OC)c1Br [2c, (E)-1-(3,5-Dibromo-2-hydroxy-4,6-dimethoxyphenyl)-3-(4-chlorophenyl)prop-2-en-1-one]",28 ± 0.003 µM,9.68 ± 0.8 µM,15.1 ± 0.91 µM,20.3 ± 1.01 µM,,18 ± 0.06 µM,150 to 152 °C,12.3 ± 0.003 µM,selectivity index (SI = IC50(α-glucosidase)/IC50(α-amylase)) [2]: 0.68
"COc1c(Br)c(O)c(C(=O)/C=C/c2ccc(F)cc2)c(OC)c1Br [2b, (E)-1-(3,5-Dibromo-2-hydroxy-4,6-dimethoxyphenyl)-3-(4-fluorophenyl)prop-2-en-1-one]",6.5 ± 0.005 µM,18.7 ± 0.89 µM,12.1 ± 0.72 µM,25 ± 1.09 µM,7.3 ± 0.004 µM,6.5 ± 0.07 µM,132 to 134 °C,,selectivity index (SI = IC50(α-glucosidase)/IC50(α-amylase)) [2]: 1.12
"COc1c(Br)c(OC)c2c(=O)cc(-c3ccccc3)oc2c1Br [3a, 6,8-Dibromo-5,7-dimethoxy-2-phenyl-4H-chromen-4-one]",,16.2 ± 0.91 µM,8.5 ± 0.82 µM,12.4 ± 0.97 µM,,,216 to 218 °C,14.2 ± 0.005 µM,IC50 (A549 cells): 12.4 ± 0.97 µM; IC50 (Vero cells): 16.2 ± 0.91 µM
"COc1ccc(-c2cc(=O)c3c(OC)c(Br)c(OC)c(Br)c3o2)cc1 [3d, 6,8-Dibromo-5,7-dimethoxy-2-(4-methoxyphenyl)-4H-chromen-4-one]",5.3 ± 0.005 µM,,,,15.2 ± 0.002 µM,,233 to 236 °C,,
"COc1c(Br)c(O)c(C(=O)/C=C/c2ccc(C(C)C)cc2)c(OC)c1Br [2f, (E)-1-(3,5-Dibromo-2-hydroxy-4,6-dimethoxyphenyl)-3-(4-isopropylphenyl)prop-2-en-1-one]",17.4 ± 0.015 µM,,,,,,128 to 130 °C,23.6 ± 0.1 µM,
"COc1c(Br)c(OC)c2c(=O)cc(-c3ccc(C(C)C)cc3)oc2c1Br [3f, 6,8-Dibromo-5,7-dimethoxy-2-(4-isopropylphenyl)-4H-chromen-4-one]",12.1 ± 0.07 µM,16.1 ± 1.15 µM,10.7 ± 1.02 µM,11.7 ± 1.02 µM,5.6 ± 0.006 µM,28 ± 0.06 µM,165 to 167 °C,,selectivity index (SI = IC50(α-glucosidase)/IC50(α-amylase)) [2]: 0.2
"COc1c(Br)c(O)c(C(=O)/C=C/c2ccc(C)cc2)c(OC)c1Br [2e, (E)-1-(3,5-Dibromo-2-hydroxy-4,6-dimethoxyphenyl)-3-(p-tolyl)prop-2-en-1-one]",,,,,,,151 to 152 °C,27.4 ± 0.02 µM,
"COc1c(Br)c(OC)c2c(=O)cc(-c3ccc(Cl)cc3)oc2c1Br [3c, 6,8-Dibromo-2-(4-chlorophenyl)-5,7-dimethoxy-4H-chromen-4-ONE]",4.7 ± 0.02 µM,,6.96 ± 0.66 µM,,0.8 ± 0.002 µM,,280 to 283 °C,,IC50 (MCF-7 cells): 5.1 ± 0.61 µM; coordination of Cu^2+ (change of UV-Vis maxima) [3]: some coordination of 3c to the copper ion
"COc1c(Br)c(OC)c2c(=O)cc(-c3ccc(F)cc3)oc2c1Br [3b, 6,8-Dibromo-2-(4-fluorophenyl)-5,7-dimethoxy-4H-chromen-4-one]",5.4 ± 0.002 µM,,,,19.5 ± 0.005 µM,,288 to 289 °C,,
